Experimental data from patent US20210137903A1, “ANTI-ANDROGENS FOR THE TREATMENT OF PROSTRATE CANCER” (priority 2019, published 2021).

What was measured:
CRPC = test: Phase II clinical trial, apalutamide 240 mg continuous daily dosing in CRPC; format: in vivo, human; details: for patients with 12-week PSA declines of >50% or more from baseline: 240 mg daily
Description: The primary objective was to assess antitumor activity and PSA kinetics as defined by the Prostate Cancer Clinical Trials Working Group (PCWG2) criteria. […] The median time to PSA progression was not reached for the TN cohort during the preliminary 12-week period, and was 16 weeks in the PA cohort.
The median time to PSA progression was not reached in this observed time period.

[1] = Example 1 relative bioavailability study: pharmacokinetics, whole tablets vs mixture in applesauce; format: in vivo, human; details: n=10
Procedure: This was a randomized, open-label, balanced, single dose, two-treatment, two-period, two-sequence, crossover relative bioavailability study.
Healthy male subjects were randomly assigned to 1 of 2 treatment sequences by following the randomization scheme as given below.
All study drug were taken in the morning on Day 1 of each treatment period. […] For Treatment B, the study drug-applesauce mixture was prepared by a pharmaceutical technician or pharmacist. An additional 50 mL of water for either treatments was allowed if necessary. Study drug of Treatment B was be ingested within 5 minutes. Treatment A was be swallowed whole and not chewed, divided, dissolved, or crushed.
Additional PK parameters could be included if deemed appropriate.
Pharmacokinetic analysis was performed by or under the responsibility of the sponsor.
Pharmacokinetic and statistical analysis were done using Phoenix™ WinNonlin® (Tripos L.P.). Noncompartmental analysis was applied for the pharmacokinetic analysis. Furthermore, Microsoft Excel® (Microsoft, Redmond, Wash., United States), and SAS (SAS Institute Inc., Cary, N.C., US) were used.
If one of the PK parameters could not be determined for a given subject in 1 or more periods, the subject's data was not included in the statistical analysis of that particular PK parameter. The analysis was performed on log-transformed PK parameters.
A mixed effect model that includes treatment, period, and treatment sequence as fixed effects, and subject as a random effect, was used to estimate the least squares means and intrasubject variance. Using these estimated least squares means and intrasubject variance, the point estimate and 90% CIs for the difference in means on a log scale between test and reference were constructed. The limits of the CIs was retransformed using antilogarithms to obtain 90% CIs for the geometric mean ratios of Cmax and AUC0-168 h of the test to reference formulation. A similar analysis was conducted for AUC0-72 h for supplemental purpose.

[2] = Example 1 relative bioavailability study: safety evaluations; format: in vivo, human
Procedure: Safety: Safety was evaluated throughout the study by means of adverse events (AEs), laboratory safety (hematology and serum chemistry), electrocardiograms (ECGs), vital signs (blood pressure, pulse, respiratory rate, and body temperature), and physical examinations (see the Time and Events Schedule in FIG. 1 for details).
Safety: Baseline for all laboratory evaluations, 12-lead ECG measurements, and vital signs were defined as the last evaluation done before the first study drug administration. Safety was evaluated by examining the incidence and type of adverse events, and changes in clinical laboratory test values, physical examination results, 12-lead ECGs, and vital sign measurements from the screening phase through study completion, including the washout intervals and the End-of-Study visit.
All subjects who were randomly assigned to treatment and received at least one dose of the study drug were included in the safety analysis.
The verbatim terms used in the CRF by investigators to identify adverse events was coded using the Medical Dictionary for Regulatory Activities (MedDRA). All reported adverse events with onset during the treatment phase (ie, treatment-emergent adverse events, and adverse events that have worsened since baseline) were included in the analysis. For each adverse event, the percentage of subjects who experience at least 1 occurrence of the given event was summarized by treatment group.
The severity assessment for an adverse event/serious adverse event was completed using the NCI-CTCAE Version 5.0. Any adverse event/serious adverse event not listed in the NCI-CTCAE was graded by the investigator using the standard grades as follows: […]

[3] = Dosing accuracy, chemical stability and appearance of apalutamide tablets dispersed in applesauce (UHPLC); format: physicochemical
Procedure: The tablet core weight was 700 mg. […] Appearance was determined visually. Dosing accuracy and chemical stability (the concentration and impurities) were measured using the following UHPLC Procedure. The reagents used in the UHPLC procedure were demineralized water, ammonium acetate, trifluoroacetic acid and acetonitrile. Mobile Phase A was a 10 mM NH4Ac+01% TFA/Acetonitrile (90/10 v/v) solution prepared as follows. 0.77 g Ammonium acetate (NH4Ac) was transferred into a 1000 mL volumetric flask. […] Mobile Phase B was acetonitrile. Sample solutions were prepared as described in the individual examples which follow hereinafter. [table] For chemical stability (chromatographic characteristics) the identity of impurities were assigned based on comparison of their Relative Retention Times (RRT) to known retention times, or retention times determined using reference solutions. […] The mixture was gently mixed in the container with a spatula for 10 seconds and the time recorded. The hold time of the sample was calculated against the moment the tablets were added to the mixture. After 15 minutes, the mixture was again gently mixed with a spatula for 10 seconds and the time recorded. After an additional 15 minutes, the mixture was again gently mixed with a spatula for until a uniform mixture was formed (at least 10 seconds) and the time recorded. […]

CNC(=O)c1ccc(N2C(=S)N(c3cnc(C#N)c(C(F)(F)F)c3)C(=O)C23CCC3)cc1F [apalutamide, 4-[7-(6-cyano-5-trifluoromethylpyridin-3-yl)-8-oxo-6-thioxo-5,7-diazaspiro[3.4]oct-5-yl]-2-fluoro-N-methylbenzamide]
tolerability (CRPC; 240 mg continuous daily dosing): very well tolerated | median time to PSA progression (CRPC; PA cohort): 16 weeks | median time to PSA progression (CRPC; TN cohort, preliminary 12-week period): not reached | objective response rate (by RECIST) (CRPC; TN patients with measurable disease at baseline): 63% | patients with >50% decline in PSA as compared to baseline (CRPC; non-metastatic CRPC, 12 weeks): 91% | patients with >50% decline in PSA (CRPC; non-metastatic CRPC, 24 weeks): 91% | patients with >90% decline in PSA (CRPC; non-metastatic CRPC, 24 weeks): 55% | median time to PSA progression (CRPC; non-metastatic CRPC, observed time period): not reached | patients with 12-week PSA declines of >50% or more from baseline (CRPC; post-abiraterone (PA) metastatic CRPC cohort): 29% | patients with 12-week PSA declines of >50% or more from baseline (CRPC; treatment-naive (TN) metastatic CRPC cohort): 88% | AUC0-72h Intra-subject CV(%) [1]: 3.7% | AUC0-168h Intra-subject CV(%) [1]: 2.7% | Cmax Intra-subject CV(%) [1]: 13.8% | deaths or serious TEAEs ([2]; in vivo): no deaths or serious TEAEs | overall safety and tolerability of 240 mg as whole tablets and as dispersed tablets in applesauce ([2]; in vivo): safe and generally well tolerated | subjects with QTcB or QTcF increase of >60 ms from baseline ([2]; in vivo): No subjects | subjects with QTcB or QTcF values of >480 ms ([2]; in vivo): No subjects | AE leading to treatment discontinuation ([2]; n (%)): 1 (8.3%) | AE leading to treatment discontinuation: >=Grade 3 ([2]; n (%)): 0 | AE leading to treatment discontinuation: Drug-related to Treatment A ([2]; n (%)): 0 | AE leading to treatment discontinuation: Drug-related to Treatment B ([2]; n (%)): 1 (8.3%) | AE leading to treatment discontinuation: Grade 1 ([2]; n (%)): 1 (8.3%) | AE leading to treatment discontinuation: Grade 2 ([2]; n (%)): 0 | Serious TEAE: >=Grade 3 ([2]; n (%)): 0 | Serious TEAE: Drug-related to Treatment A ([2]; n (%)): 0 | Serious TEAE: Drug-related to Treatment B ([2]; n (%)): 0 | Serious TEAE: Grade 1 ([2]; n (%)): 0 | Serious TEAE: Grade 2 ([2]; n (%)): 0 | Serious Treatment Emergent Adverse Events ([2]; n (%)): 0 | Treatment Emergent Adverse Events: Drug-related to Treatment A ([2]; n (%)): 4 (33.3%) | Treatment Emergent Adverse Events: Drug-related to Treatment B ([2]; n (%)): 4 (33.3%) | subjects with TEAE gynecomastia ([2]; n (%)): 3 (25.0%) | subjects with sexual side effects ([2]; n (%)): 3 (25.0%) | Treatment Emergent Adverse Events, subjects ([2]; n (%) of subjects treated): 5 (41.7%) | Treatment Emergent Adverse Events: >=Grade 3 ([2]; worst grade, n (%)): 0 | Treatment Emergent Adverse Events: Grade 1 ([2]; worst grade, n (%)): 4 (33.3%) | Treatment Emergent Adverse Events: Grade 2 ([2]; worst grade, n (%)): 1 (8.3%) | time the drug was found to be stable in applesauce [3]: at least 6 hours
